According to paper PMC6973020, “Quinoline‐Conjugated Ruthenacarboranes: Toward Hybrid Drugs with a Dual Mode of Action” (Chemmedchem, 2019):

Experiments:
[1] = Nanoparticle Tracking Analysis (NTA) in PBS/DMSO, with and without BSA; assay type: physicochemical; conditions: PBS, without BSA, 20 μM, 25 °C
Protocol: Nanoparticle Tracking Analysis (NTA). 3 and 4 were analyzed via NTA to study the modulation of self‐assembly behavior in PBS/DMSO mixture (pH 7.4), with and without BSA, in an analogous way as described previously.9 Samples of 3 and 4 in PBS/DMSO were prepared as described above for UV‐vis measurements. The solutions were measured 30 min after preparation. Samples of BSA−3 and BSA−4 were prepared with two different BSA:ruthenacarborane ratios, namely 10 : 1 and 1 : 1. Stock solutions of BSA in PBS ([BSA]PBS=1.128 mM) were diluted to final concentrations of 200 or 20 μM with PBS (Vfin=5 mL), then an aliquot of the stock solution of 3 or 4 was added, so that the final concentration of metallacarborane was 20 μM. Content of DMSO was adjusted to 1 vol % (considering the amount of DMSO from the stock solutions) before addition of the ruthenacarborane, in all samples. The solutions of BSA−ruthenacarborane were measured 3.5–6 h after preparation. BSA alone in PBS/DMSO was also measured, as blank, using the same capture and processing parameters as for the respective BSA−metallacarborane samples, for direct comparison. All NTA measurements were performed at 25±0.1 °C. Each sample was measured in five independent captures. The time of each capture was set to 60 s.

[2] = Solubility in organic solvents (qualitative); assay type: physicochemical
[3] = tested on: U251 and LN229 cell lines; test: Cell viability assays (MTT, CV), summary for glioma and glioblastoma lines; assay type: cell-based, human; conditions: 72 h
Source text: Thus, care must be taken when comparing their biological activities with those of our previous studies, even with the same cell line, because the covalent vs. non‐covalent combination of drugs might imply different mechanisms of action in the cell.44 Here, we studied the in vitro activity of ruthenacarborane 3, i. e. free acid, and its 8‐hydroxyquinolyl (4) and 4‐{(7‐chloroquinolin‐4‐yl)oxy}butanol‐1‐yl (5) esters, against a panel of cancer cell lines (B16 mouse melanoma, A375 human skin melanoma, MCF‐7 human breast adenocarcinoma, LN229 human glioblastoma, U251 human glioma). Human fibroblast cell line MRC‐5, murine microglial cell line BV‐2 as well as peritoneal exudate cells (Mph), were chosen as models for non‐malignant cells. […] On the other side, we wanted to assess the reproducibility of the viability data, under either controlled (with BSA) or uncontrolled (without BSA) conditions, in two sets of independent assays. […] Cells were exposed to 3–5 for 72 h, after which cell viability was determined via 3‐(4,5‐dimethylthiazol‐2‐yl)‐2,5‐diphenyltetrazolium bromide (MTT) and crystal violet (CV) assays, in parallel (Table 2). Cisplatin was also tested as reference.
Preparation of drug solutions. […] Stock solution of cisplatin was prepared in DMF (10 mM) immediately before use. A stock solution of BSA in PBS was prepared at 1.28 mM concentration, and stored at 4 °C in the dark. […] Alternatively, 3 or 4 (DMSO stock solution) were added to the BSA solution in PBS, always with a 10 : 1 molar ratio of BSA to ruthenacarborane. […]
Colorimetric assays for cellular viability. […] The absorbance was measured with an automated microplate reader at λmax 540 nm, with the reference λmax 670 nm. Untreated cells or cells treated only with BSA (control) were also measured, as reference for BSA‐free and BSA‐containing drug formulations, respectively. […] Cell viability is expressed as percentage (%) relative to control (untreated cultures).58 Experiments were run in three independent replicates. […]

Substance | concentration of self‐assemblies [1] | solubility in organic solvents (in words) [2] | IC50 ([3]; range over both cell lines, depending on assay and formulation type, read-out: IC50 concentrations against U251 and LN229) [µM] | activity against LN229 and U251 (in words) ([3]; concentration range tested up to 100 μM)
closo ‐[3‐(η^6‐p‐Cymene)‐1‐(quinolin‐8‐yl‐acetate)‐3,1,2‐RuC2B9H10] [Compound 4] | 10^6–10^7 particles mL^−1 | soluble in dichloromethane, chloroform, acetone and DMSO | 33 to 45 | 
closo‐ [Compound 3, closo‐ [3‐(η^6‐p‐Cymene)‐1‐(CH2COOH)‐3,1,2‐RuC2B9H10]] | 10^6–10^7 particles mL^−1 | soluble in acetone, THF, acetonitrile and DMSO, moderately soluble in chloroform and dichloromethane |  | inactive
